ChEMBL document CHEMBL4346695, “Thiophenol-formaldehyde triazole causes apoptosis induction in ovary cancer cells and prevents tumor growth formation in mice model” (2019)
Activity calls are given as the source filed them. The rule behind the calls is not given here.

How the values were obtained:
Caov-3 cell line [1] = assay: Induction of apoptosis in human Caov3 cells assessed as formation of apoptotic nuclei at 2.0 uM incubated for 48 hrs by Hoechst 33342 staining based fluorescent microscopic method; assay type: functional, cell-based
Caov-3 cell line [2] = assay: Growth inhibition of human Caov3 cells incubated for 48 hrs by MTT assay; assay type: functional, cell-based
Homo sapiens [3] = species on record: Homo sapiens; assay: Growth inhibition of human ES2 cells incubated for 48 hrs by MTT assay; assay type: functional
Caov-4 [4] = assay: Growth inhibition of human Caov4 cells incubated for 48 hrs by MTT assay; assay type: functional, cell-based
Caov-3 cell line [5] = assay: Growth inhibition of human Caov3 cells at 0.5 uM incubated for 48 hrs by MTT assay; assay type: functional, cell-based
Homo sapiens [6] = species on record: Homo sapiens; assay: Growth inhibition of human ES2 cells at 0.5 uM incubated for 48 hrs by MTT assay; assay type: functional
Caov-4 [7] = assay: Growth inhibition of human Caov4 cells at 0.5 uM incubated for 48 hrs by MTT assay; assay type: functional, cell-based
Caov-3 cell line [8] = assay: Growth inhibition of human Caov3 cells at 2 uM incubated for 48 hrs by MTT assay relative to control; assay type: functional; settings: Caov-3, 48 h, read-out: GI
Caov-4 [9] = assay: Growth inhibition of human Caov4 cells at 2 uM incubated for 48 hrs by MTT assay relative to control; assay type: functional; settings: Caov-4, 48 h, read-out: GI
[10] = Growth inhibition of human ES2 cells at 2 uM incubated for 48 hrs by MTT assay relative to control; assay type: functional; settings: ES-2, 48 h, read-out: GI
Caov-3 cell line [11] = assay: Growth inhibition of human Caov3 cells at 0.25 uM incubated for 48 hrs by MTT assay; assay type: functional, cell-based
Homo sapiens [12] = species on record: Homo sapiens; assay: Growth inhibition of human ES2 cells at 0.25 uM incubated for 48 hrs by MTT assay; assay type: functional
Caov-4 [13] = assay: Growth inhibition of human Caov4 cells at 0.25 uM incubated for 48 hrs by MTT assay; assay type: functional, cell-based
Caov-3 cell line [14] = assay: Induction of apoptosis in human Caov3 cells at 0.25 to 2.0 uM incubated for 48 hrs by Hoechst 33342 staining based fluorescent microscopic method; assay type: functional, cell-based
Caov-3 cell line [15] = assay: Induction of apoptosis in human Caov3 cells assessed as formation of apoptotic nuclei at 0.25 uM incubated for 48 hrs by Hoechst 33342 staining based fluorescent microscopic method relative to control; assay type: functional
Caov-3 cell line [16] = assay: Induction of apoptosis in human Caov3 cells assessed as formation of apoptotic nuclei at 0.5 uM incubated for 48 hrs by Hoechst 33342 staining based fluorescent microscopic method relative to control; assay type: functional
Caov-3 cell line [17] = assay: Induction of apoptosis in human Caov3 cells assessed as formation of apoptotic nuclei at 1.0 uM incubated for 48 hrs by Hoechst 33342 staining based fluorescent microscopic method relative to control; assay type: functional
Caov-3 cell line [18] = assay: Induction of apoptosis in human Caov3 cells assessed as formation of apoptotic nuclei at 1.5 uM incubated for 48 hrs by Hoechst 33342 staining based fluorescent microscopic method relative to control; assay type: functional
Caov-3 cell line [19] = assay: Induction of apoptosis in human Caov3 cells assessed as formation of apoptotic nuclei at 2.0 uM incubated for 48 hrs by Hoechst 33342 staining based fluorescent microscopic method relative to control; assay type: functional
Caov-3 cell line [20] = assay: Induction of Cell cycle arrest in human Caov3 cells assessed as accumulation at G0/G1 phase at 1 uM incubated for 48 hrs by propidium iodide staining based flow cytometric analysis (reference value: 57.77%); assay type: functional
Caov-3 cell line [21] = assay: Induction of Cell cycle arrest in human Caov3 cells assessed as accumulation at S phase at 1 uM incubated for 48 hrs by propidium iodide staining based flow cytometric analysis (reference value: 18.89%); assay type: functional
Caov-3 cell line [22] = assay: Induction of Cell cycle arrest in human Caov3 cells assessed as accumulation at G2/M phase at 1 uM incubated for 48 hrs by propidium iodide staining based flow cytometric analysis (reference value: 22.68%); assay type: functional
Caov-3 cell line [23] = assay: Induction of Cell cycle arrest in human Caov3 cells assessed as accumulation at G0/G1 phase at 1.5 uM incubated for 48 hrs by propidium iodide staining based flow cytometric analysis (reference value: 57.77%); assay type: functional
Caov-3 cell line [24] = assay: Induction of Cell cycle arrest in human Caov3 cells assessed as accumulation at S phase at 1.5 uM incubated for 48 hrs by propidium iodide staining based flow cytometric analysis (reference value: 18.89%); assay type: functional
Caov-3 cell line [25] = assay: Induction of Cell cycle arrest in human Caov3 cells assessed as accumulation at G2/M phase at 1.5 uM incubated for 48 hrs by propidium iodide staining based flow cytometric analysis (reference value: 22.68%); assay type: functional
Caov-3 cell line [26] = assay: Induction of Cell cycle arrest in human Caov3 cells assessed as accumulation at G0/G1 phase at 2 uM incubated for 48 hrs by propidium iodide staining based flow cytometric analysis (reference value: 57.77%); assay type: functional
Caov-3 cell line [27] = assay: Induction of Cell cycle arrest in human Caov3 cells assessed as accumulation at S phase at 2 uM incubated for 48 hrs by propidium iodide staining based flow cytometric analysis (reference value: 18.89%); assay type: functional
Caov-3 cell line [28] = assay: Induction of Cell cycle arrest in human Caov3 cells assessed as accumulation at G2/M phase at 2 uM incubated for 48 hrs by propidium iodide staining based flow cytometric analysis (reference value: 22.68%); assay type: functional
Caov-3 cell line [29] = assay: Antiinvasive activity in human Caov3 cells at 0.25 uM incubated for 48 hrs using hematoxylin by microscopy-based transwell assay; assay type: functional, cell-based
Caov-3 cell line [30] = assay: Antiinvasive activity in human Caov3 cells at 0.5 uM incubated for 48 hrs using hematoxylin by microscopy-based transwell assay relative to control; assay type: functional
Caov-3 cell line [31] = assay: Antiinvasive activity in human Caov3 cells at 1.0 uM incubated for 48 hrs using hematoxylin by microscopy-based transwell assay relative to control; assay type: functional

Fc1ccccc1-n1cc(COCc2ccccc2S)nn1
Activity (Caov-3 cell line [1]): Active
growth inhibition (GI) (Caov-3 cell line [2]): Dose-dependent effect
growth inhibition (GI) (Homo sapiens [3]): Dose-dependent effect
growth inhibition (GI) (Caov-4 [4]): Dose-dependent effect
growth inhibition (GI) (Caov-3 cell line [5]): Active
growth inhibition (GI) (Homo sapiens [6]): Active
growth inhibition (GI) (Caov-4 [7]): Active
inhibition of growth at 2 µM (Caov-3 cell line [8]): 27%
inhibition of growth at 2 µM (Caov-4 [9]): 26%
inhibition of growth at 2 µM [10]: 29%
growth inhibition (GI) (Caov-3 cell line [11]): inactive
growth inhibition (GI) (Homo sapiens [12]): inactive
growth inhibition (GI) (Caov-4 [13]): inactive
Activity (Caov-3 cell line [14]): Active
Activity (Caov-3 cell line [15]): 1.26%
Activity (Caov-3 cell line [16]): 8.67%
Activity (Caov-3 cell line [17]): 21.54%
Activity (Caov-3 cell line [18]): 45.89%
Activity (Caov-3 cell line [19]): 62.53%
Activity (Caov-3 cell line [20]): 61.63%
Activity (Caov-3 cell line [21]): 16.23%
Activity (Caov-3 cell line [22]): 21.19%
Activity (Caov-3 cell line [23]): 64.57%
Activity (Caov-3 cell line [24]): 14.61%
Activity (Caov-3 cell line [25]): 20.07%
Activity (Caov-3 cell line [26]): 69.54%
Activity (Caov-3 cell line [27]): 11.48%
Activity (Caov-3 cell line [28]): 18.08%
Activity (Caov-3 cell line [29]): inactive
Activity (Caov-3 cell line [30]): 84.54%
Activity (Caov-3 cell line [31]): 67.76%
